Results from patent publication US5776944A, “7-(4-aminomethyl-3-methyloxyiminopyrroplidin-1-yl)-1-cyclopropyl-6-flu oro-4-oxo-1,4-dihydro-1,8-naphthyridine-3-carboxylic acid and the process for the preparation thereof” (LG Chemical Ltd., priority 1994, dated 1998).
Converted amounts (≈) assume the structure as drawn. “Also recorded” adds a separate entry of the source.

Tests used:
[1] = Equilibrium moisture content determination of hydrates; format: physicochemical
Method: Six saturated aqueous salt solutions were introduced into each desiccator to control the inner relative humidity to a specific value as represented in the following Table 28. Then, equilibrium moisture contents of 3 hydrate and 1.5 hydrate prepared in Examples 205 and 206, respectively, were determined at several relative humidities.
Specifically, 100 mg of the sample was spread on a preweighed Petri dish and the total weight was accurately measured, then three of the sample were placed in each desiccator of Table 28. The desiccators were allowed to stand at normal temperature for 7 days and then the sample was taken to be weighed. After 13 days had passed, one of the three samples inside each desiccator was taken and the moisture content of each was measured by the thermogravimetric analysis described in Test Example 2. Equilibrium moisture content at each relative humidity is represented in FIG. 3 (3 hydrate), and FIG. 4 (1.5 hydrate). […] Both hydrates are stable since they keep a constant equilibrium moisture content regardless of the relative humidity change.

[2] = Chemical stability under heating; conditions: for thermal stability: hydrate
Method: The anhydride and each of the hydrates was introduced into a glass vial and maintained at 70° C.

[3] = Thermal analysis (Differential Scanning Calorimetry); format: physicochemical; conditions: DSC, 10° C./min
Method: For the Differential Scanning Calorimetry, METTLER TOLEDO DSC821e and METTLER TOLEDO STARe System were used. 3.7 mg of sample was weighed into the aluminum pan, which was then press sealed with an aluminum lid. After three tiny needle holes were made on the lid, the sample was tested by heating from normal temperature to 250° C. at a rate of 10° C./min.

[4] = Moisture content according to hydration number; format: physicochemical
Method: The moisture content of the hydrate varies with the hydration number (n) of the hydrated molecule. Since the molecular weight of 7-(4-amino-methyl-3-methyloxylminopyrrolidin-1-yl)-1-cyclopropyl-6-fluoro- 4-oxo-1,4-dihydro-1,8-naphthyridine-3-carboxylic acid methanesulfonate is 485.5, the moisture content of the hydrate for n equal to 1, 1.5, 2, 2.5, 3, 3.5 or 4 is calculated to be 3.6%, […], 6.9%, 8.5%, 10.0%, 11.5% or 12.9%, respectively. However, the actual moisture content may differ from the calculated moisture content depending on differences in recrystallization conditions, drying conditions, etc.

Escherichia coli 851E = experiment: In vitro antibacterial activity (MIC, agar dilution), Biological Example 1; format: cell-based; conditions: 18 h, Table 25, read-out: Minimum Inhibitory Concentration
[5] = system: Streptococcus faecalis 29212; experiment: as above; format: cell-based; conditions: Enterococcus faecalis, 18 h; Streptococcus faecalis 29212, Table 25; read-out: Minimum Inhibitory Concentration
[6] = system: Citrobacter diversus 2046E; experiment: as above; format: cell-based; conditions: Citrobacter koseri, 18 h, Table 25, read-out: Minimum Inhibitory Concentration
[7] = system: Escherichia coli TEM5 3739E; experiment: microbe, parasite or virus in culture; format: cell-based; conditions: TEM53739E, 18 h, read-out: Minimum Inhibitory Concentration
[8] = system: Staphylococcus aureus 241; experiment: In vitro antibacterial activity (MIC, agar dilution), Biological Example 1; format: cell-based; conditions: 18 h; Staphylococcus aureus 241, Table 25; read-out: Minimum Inhibitory Concentration
[9] = system: Klebsiella aerogenes 1082E; experiment: as above; format: cell-based; conditions: 18 h, Table 25, read-out: Minimum Inhibitory Concentration
[10] = system: Klebsiella aerogenes 1976E; experiment: as above; format: cell-based; conditions: 18 h, Table 25, read-out: Minimum Inhibitory Concentration
[11] = system: Salmonella typimurium 14028; experiment: as above; format: cell-based; conditions: 18 h; Salmonella typimurium 14028, Table 25; read-out: Minimum Inhibitory Concentration
[12] = system: Pseudomonas aeruginosa 10145; experiment: as above; format: cell-based; conditions: 18 h; Pseudomonas aeruginosa 10145, Table 25; read-out: Minimum Inhibitory Concentration
Escherichia coli 10536 = experiment: as above; format: cell-based; conditions: 18 h; Escherichia coli 10536, Table 25; read-out: Minimum Inhibitory Concentration
Bacillus subtilis 6633 = experiment: as above; format: cell-based; conditions: 18 h; Bacillus subtilis 6633, Table 25; read-out: Minimum Inhibitory Concentration
Acute oral toxicity test = conditions: in vivo, ICR male mouse, 7 days
Method: To determine the acute oral toxicity of the compounds prepared in Examples 1 and 34, the test solution containing the compounds in various concentrations were orally administered to ICR male mouse in an amount of 10 ml per kg of body weight. For 7 days after administration, the lethality and the conditions of test mouse were observed, from which LD50 value (mg/kg), was calculated.

[13] = system: Acinetobacter calcoaceticus 15473; experiment: In vitro antibacterial activity (MIC, agar dilution), Biological Example 1; format: cell-based; conditions: 18 h; Acinetobacter calcoaceticus 15473, Table 25; read-out: Minimum Inhibitory Concentration
[14] = system: Staphylococcus epidermidis 887E; experiment: as above; format: cell-based; conditions: 18 h, Table 25, read-out: Minimum Inhibitory Concentration
[15] = system: Pseudomonas aeruginosa 1912E; experiment: as above; format: cell-based; conditions: 18 h; Pseudomonas aeruginosa 1912E, Table 25; read-out: Minimum Inhibitory Concentration
Escherichia coli 3190Y = experiment: as above; format: cell-based; conditions: 18 h, Table 25, read-out: Minimum Inhibitory Concentration
[16] = system: Escherichia coli TEM9 2639E; experiment: microbe, parasite or virus in culture; format: cell-based; conditions: TEM92639E, 18 h, read-out: Minimum Inhibitory Concentration
Enterobacter cloacae P99 = experiment: microbe, parasite or virus in culture; format: cell-based; conditions: P99, 18 h, read-out: Minimum Inhibitory Concentration
[17] = system: Staphylococcus aureus 6538p; experiment: In vitro antibacterial activity (MIC, agar dilution), Biological Example 1; format: cell-based; conditions: 18 h, Table 25, read-out: Minimum Inhibitory Concentration
[18] = system: Staphylococcus aureus giorgio; experiment: as above; format: cell-based; conditions: 18 h, Table 25, read-out: Minimum Inhibitory Concentration
[19] = system: Staphylococcus epidermidis 178; experiment: as above; format: cell-based; conditions: 18 h; Staphylococcus epidermidis 178, Table 25; read-out: Minimum Inhibitory Concentration
Staphylococcus aureus 77 = experiment: as above; format: cell-based; conditions: 18 h; Staphylococcus aureus 77, Table 25; read-out: Minimum Inhibitory Concentration
[20] = system: Escherichia coli TEM3 3455E; experiment: microbe, parasite or virus in culture; format: cell-based; conditions: TEM33455E, 18 h, read-out: Minimum Inhibitory Concentration
Micrococcus luteus 9341 = experiment: In vitro antibacterial activity (MIC, agar dilution), Biological Example 1; format: cell-based; conditions: 18 h; Micrococcus luteus 9341, Table 25; read-out: Minimum Inhibitory Concentration
[21] = system: Enterobacter cloacae 1194E; experiment: microbe, parasite or virus in culture; format: cell-based; conditions: 18 h, read-out: Minimum Inhibitory Concentration
[22] = Humidification of the anhydride with humidified nitrogen (Example 205); format: physicochemical
Method: A sonicator filled with water was adjusted to 40° C. and was sealed with a lid. Then, a nitrogen introducing tube and a nitrogen excreting tube were connected to the vessel. When the pressure of the dried nitrogen introduced through the nitrogen introducing tube was adjusted to 20 psi, the relative humidity of the humidified nitrogen excreted through the excreting tube was more than 93%. […] Samples were taken after 0, 5, 10, 20, 30, and 60 minutes, respectively, and the moisture content with the lapse of time was measured. From the results shown in FIG. 8, it can be seen that moisture content of about 10% is constantly maintained when the humidifying procedure is carried out over 30 minutes. The X-ray diffraction pattern of the humidified sample was identical to that the 3 hydrate obtained after recrystallization.

[23] = Moisture adsorption test of the anhydride; format: physicochemical; conditions: 25° C.
Method: Under various relative humidities at 25° C., the moisture adsorption velocity and the equilibrium moisture content of the anhydride prepared in Example 203 were determined by means of an automatic moisture adsorption analyzer (MB 300 G Gravimetric Sorption Analyzer). This instrument produces a specific relative humidity at a specific temperature and continuously records the weight change of a sample due to adsorption or desorption of moisture as measured by a micro balance inside the instrument. 16 mg of the anhydride sample was loaded on the micro balance and the moisture contained in the sample was removed under a dry nitrogen stream at 50° C. A weight change of less than 5 μg per 5 minutes was the criterion for complete dryness. Thereafter, the inner temperature was adjusted to 25° C., and the sample was tested varying the relative humidity from 0 to 95% at 5% intervals. The sample was considered to have reached equilibrium at each relative humidity tested when the weight change was less than 5 μg per 5 minutes. […] In most cases, the equilibrium was reached within 2 hours.

[24] = background art; cited from earlier work
gram-positive strains = conditions: background art; cited from earlier work

Structure (SMILES): CON=C1CN(c2nc3c(cc2F)c(=O)c(C(=O)O)cn3C2CC2)CC1CN (stereo not shown) [3 hydrate, 7-(4-aminomethyl-3-methyloxyiminopyrrolidin-1-yl)-1-cyclopropyl-6-fluoro-4-oxo-1,4-dihydro-1,8-naphthyridine-3-carboxylic acid methanesulfonate·3 hydrate]
- stability of hydrate towards relative humidity change [1]: stable
- equilibrium moisture content ([1]; whole relative humidity range tested (23 to 75%)): around 10%
- thermal stability compared with the anhydride ([2]; 70° C., Table 29): the same degree of thermal stability as the anhydride
- thermal stability ([2]; 40320 min): 94%
- thermal stability [2]: 97%
- onset of endothermic peak (vaporization of water) [3]: around 50 °C
- Moisture Content ([4]; actual moisture content, methanesulfonate hydrates, hydrate): 9-11%
- change of moisture content ([4]; among stable hydrates): lowest

Structure (SMILES): NCC1CN(c2c(F)cc3c(=O)c(C(=O)O)cn(C4CC4)c3c2Cl)CC1=NOCc1ccccc1 (stereo not shown) [Example 34, 7-(4-aminomethyl-3-benzyoxyimino-pyrrolidin-1-yl)-8-chloro-1-cyclopropyl-6-fluoro-1,4-dihydro-4-oxo-guinoline-3-carboxylic acid]
- MIC (Escherichia coli 851E): 0.13 µg/mL (≈ 0.261 µM)
- MIC [5]: 0.13 µg/mL (≈ 0.261 µM)
- MIC [6]: 0.25 µg/mL (≈ 0.501 µM)
- MIC [7]: 0.5 µg/mL (≈ 1 µM)
- MIC [8]: 4 µg/mL (≈ 8.02 µM)
- MIC [9]: 0.031 µg/mL (≈ 0.0621 µM)
- MIC [10]: 0.5 µg/mL (≈ 1 µM)
- MIC [11]: 0.063 µg/mL (≈ 0.126 µM)
- MIC [12]: 2 µg/mL (≈ 4.01 µM)
- MIC (Escherichia coli 10536): 0.016 µg/mL (≈ 0.0321 µM)
- MIC (Bacillus subtilis 6633): ≤ 0.008 µg/mL
- LD50 at 168 h (Acute oral toxicity test): > 3000 mg/kg
- MIC [13]: 0.031 µg/mL (≈ 0.0621 µM)
- MIC [14]: ≤ 0.008 µg/mL
- MIC [15]: 0.5 µg/mL (≈ 1 µM)
- MIC (Escherichia coli 3190Y): ≤ 0.008 µg/mL
- MIC [16]: 0.13 µg/mL (≈ 0.261 µM)
- MIC (Enterobacter cloacae P99): 0.063 µg/mL (≈ 0.126 µM)
- MIC [17]: ≤ 0.008 µg/mL
- MIC [18]: ≤ 0.008 µg/mL
- MIC [19]: 2 µg/mL (≈ 4.01 µM)
- MIC (Staphylococcus aureus 77): ≤ 0.008 µg/mL
- MIC [20]: 1 µg/mL (≈ 2 µM)
- MIC (Micrococcus luteus 9341): 0.13 µg/mL (≈ 0.261 µM)
- MIC [21]: 0.25 µg/mL (≈ 0.501 µM)

Structure (SMILES): CON=C1CN(c2nc3c(cc2F)c(=O)c(C(=O)O)cn3C2CC2)CC1CN (stereo not shown) [anhydride, 7-(4-aminomethyl-3-methyloxyiminopyrrolidin-1-yl)-1-cyclopropyl-6-fluoro-4-oxo-1,4-dihydro-1,8-naphthyridine-3-carboxylic acid methanesulfonate anhydride]
- Moisture Content ([22]; before humidification): about 2.5%
- Moisture Content ([22]; humidified nitrogen, over 30 minutes, FIG. 8): about 10%
- moisture adsorption ([23]; relative humidity 0 to 95%): Initial moisture adsorption proceeded very speedily at each relative humidity tested; also recorded: the equilibrium moisture content is dependent upon the relative humidity
- time to reach moisture adsorption equilibrium ([23]; relative humidity 0 to 95% at 5% intervals, in most cases): ≤ 2 h
- endothermic peak [3]: without any endothermic peak

Structure (SMILES): CCn1cc(C(=O)O)c(=O)c2cc(F)c(N3CCNCC3)cc21 [norfloxacin]
- distribution and absorption in living body [24]: poor distribution and absorption in living body
- antibacterial activity against gram-positive strains (gram-positive strains): weak antibacterial activity against gram-positive strains
